System: patients with chronic low back pain (LBP) and Modic changes on MRI
Assay: Double-blinded, randomized, placebo-controlled clinical trial of a single intravenous infusion of 5 mg zoledronic acid
Format: in vivo, human
Conditions: for Intensity of leg pain, mean (SD) original value / Intensity of LBP, mean (SD) original value / Intensity of LBP, mean (SD) change: 10-cm VAS; for Fingers-to-floor, between-group difference, adjusted (ANCOVA) / Fingers-to-floor, between-group difference, unadjusted / Intensity of LBP, between-group difference, adjusted analysis (ANCOVA, baseline value) / Intensity of LBP, between-group difference, unadjusted analysis / Intensity of leg pain, between-group difference, adjusted (ANCOVA) / Intensity of leg pain, between-group difference, unadjusted / Oswestry disability index, between-group difference, adjusted (ANCOVA) / Oswestry disability index, between-group difference, unadjusted / RAND-36 mental component, between-group difference (95% CI), adjusted (ANCOVA) / RAND-36 mental component, between-group difference (95% CI), unadjusted / RAND-36 physical component, between-group difference (95% CI), adjusted (ANCOVA) / RAND-36 physical component, between-group difference (95% CI), unadjusted / Sidebending to left, between-group difference, adjusted (ANCOVA) / Sidebending to left, between-group difference, unadjusted / Sidebending to right, between-group difference, adjusted (ANCOVA) / Sidebending to right, between-group difference, unadjusted / Total RAND-36, between-group difference (95% CI), adjusted (ANCOVA) / Total RAND-36, between-group difference (95% CI), unadjusted: ZA vs placebo
Method: A study was performed to evaluate the efficacy of a single intravenous infusion of 5 mg zoledronic acid in comparison with intravenous placebo infusion among patients with chronic low back pain (LBP) and Modic changes on MRI. This study was a double-blinded, randomized, placebo-controlled clinical trial in patients with low back pain (LBP).
Patients were excluded from the study if they had renal impairment with reduced creatinine clearance defined as an estimated glomerular filtration rate (eGFR) below 40 ml/min, hypocalcemia, known hypersensitivity to zoledronic acid or other bisphosphonates or ingredients of the infusion product, the presence of red flags, nerve root entrapment or willingness for early retirement. Premenopausal women of childbearing potential were also excluded. Blood samples were taken prior to the infusion to assess the serum concentration of calcium and creatinine. The clinical examination included medical history and clinical assessment of lumbar flexibility, tendon signs, and motor and sensory testing.
After confirmation of eligibility patients were randomized to receive a single intravenous infusion of 5 mg zoledronic acid (n=20) or 100 ml saline as placebo (n=20) over a 15-minute period. Information on use of the concomitant medication and hospital admissions were recorded. Blood samples were taken for the assessment of safety, inflammatory mediators and markers of bone turnover at baseline, at one month and at one year.
Clinical assessments were performed at 14 days before enrollment (screening visit), and at follow-up visits at one month and one year after the infusion. The primary outcome was the change in the intensity of LBP on VAS. Secondary outcomes included leg pain intensity, ODI, health-related quality of life assessed with RAND-36, patient-reported sick leaves and lumbar flexibility. These outcome measures were assessed at baseline and at each follow-up. Lumbar flexibility was evaluated using the fingers-to-floor and trunk side bending measures (in cm). The percentage of patients undergoing a 20% relative improvement, the proportion of patients reaching a VAS score of 40 mm or less using 100 mm scale in the primary outcome, and patient acceptable symptom state (PASS) were also assessed. Pain medication use was inquired about during the follow-up visits.

SMILES: O=P(O)(O)C(O)(Cn1ccnc1)P(=O)(O)O [ZA, zoledronic acid]
- Fingers-to-floor, mean (SD) original value (1 mo.): 17 (17) cm
- Oswestry disability index, mean (SD) original value (1 mo.): 24 (10) %
- RAND-36 mental component, mean (SD) original value (1 mo.): 50 (9)
- RAND-36 physical component, mean (SD) original value (1 mo.): 52 (9)
- Sidebending to left, mean (SD) original value (1 mo.): 16.1 (5.3) cm
- Sidebending to right, mean (SD) original value (1 mo.): 15.7 (5.9) cm
- Total RAND-36, mean (SD) original value (1 mo.): 51 (8)
- Intensity of leg pain, mean (SD) original value (1 mo.): 2.0 (2.3)
- Intensity of LBP, mean (SD) original value (1 mo. after 5 mg IV): 4.3 (2.3)
- Intensity of leg pain, mean (SD) original value (12 mos.): 2.1 (2.8)
- Intensity of LBP, mean (SD) original value (12 mos. after 5 mg IV): 3.8 (2.5)
- Intensity of leg pain, mean (SD) original value (baseline): 3.0 (3.1)
- Intensity of LBP, mean (SD) change (baseline to 1 mo.): −2.2 (2.7)
- Intensity of LBP, mean (SD) change (baseline to 12 mos.): −2.8 (2.9)
- Intensity of LBP, mean (SD) original value (baseline, n=20): 6.6 (1.4)
- Fingers-to-floor, mean (SD) original value (12 mos.): 16 (16) cm
- Oswestry disability index, mean (SD) original value (12 mos.): 25 (13) %
- RAND-36 mental component, mean (SD) original value (12 mos.): 51 (9)
- RAND-36 physical component, mean (SD) original value (12 mos.): 52 (8)
- Sidebending to left, mean (SD) original value (12 mos.): 16.2 (6.7) cm
- Sidebending to right, mean (SD) original value (12 mos.): 15.7 (5.6) cm
- Total RAND-36, mean (SD) original value (12 mos.): 51 (8)
- Fingers-to-floor, between-group difference, adjusted (ANCOVA) (1 mo.): 3.6 cm
- Fingers-to-floor, between-group difference, unadjusted (1 mo.): 5.0 cm
- Intensity of LBP, between-group difference, adjusted analysis (ANCOVA, baseline value) (1 mo.): 1.4
- Intensity of LBP, between-group difference, unadjusted analysis (1 mo.): 1.3
- Intensity of leg pain, between-group difference, adjusted (ANCOVA) (1 mo.): 0.8
- Intensity of leg pain, between-group difference, unadjusted (1 mo.): 0.8
- Oswestry disability index, between-group difference, adjusted (ANCOVA) (1 mo.): 6.0%
- Oswestry disability index, between-group difference, unadjusted (1 mo.): 4.3%
- RAND-36 mental component, between-group difference (95% CI), adjusted (ANCOVA) (1 mo.): 1.6 (−2 to 5)
- RAND-36 mental component, between-group difference (95% CI), unadjusted (1 mo.): 2.0 (−2 to 6)
- RAND-36 physical component, between-group difference (95% CI), adjusted (ANCOVA) (1 mo.): 1.3 (−3 to 6)
- RAND-36 physical component, between-group difference (95% CI), unadjusted (1 mo.): 0.3 (−4 to 5)
- Sidebending to left, between-group difference, adjusted (ANCOVA) (1 mo.): −1.7 cm
- Sidebending to left, between-group difference, unadjusted (1 mo.): −1.5 cm
- Sidebending to right, between-group difference, adjusted (ANCOVA) (1 mo.): −2.0 cm
- Sidebending to right, between-group difference, unadjusted (1 mo.): −2.0 cm
- Total RAND-36, between-group difference (95% CI), adjusted (ANCOVA) (1 mo.): 1.3 (−3 to 5)
- Total RAND-36, between-group difference (95% CI), unadjusted (1 mo.): 1.2 (−3 to 5)
- Fingers-to-floor, between-group difference, adjusted (ANCOVA) (12 mos.): 5.3 cm
- Fingers-to-floor, between-group difference, unadjusted (12 mos.): 7.1 cm
- Intensity of LBP, between-group difference, adjusted analysis (ANCOVA, baseline value) (12 mos.): 0.7
- Intensity of LBP, between-group difference, unadjusted analysis (12 mos.): 0.6
- Intensity of leg pain, between-group difference, adjusted (ANCOVA) (12 mos.): 0.5
- Intensity of leg pain, between-group difference, unadjusted (12 mos.): 0.6
- Oswestry disability index, between-group difference, adjusted (ANCOVA) (12 mos.): 5.1%
- Oswestry disability index, between-group difference, unadjusted (12 mos.): 3.1%
- RAND-36 mental component, between-group difference (95% CI), adjusted (ANCOVA) (12 mos.): 2.7 (−2 to 7)
- RAND-36 mental component, between-group difference (95% CI), unadjusted (12 mos.): 3.5 (−2 to 9)
- RAND-36 physical component, between-group difference (95% CI), adjusted (ANCOVA) (12 mos.): 2.1 (−3 to 7)
- RAND-36 physical component, between-group difference (95% CI), unadjusted (12 mos.): 0.7 (−5 to 6)
- Sidebending to left, between-group difference, adjusted (ANCOVA) (12 mos.): −1.0 cm
- Sidebending to left, between-group difference, unadjusted (12 mos.): −0.7 cm
- Sidebending to right, between-group difference, adjusted (ANCOVA) (12 mos.): −1.7 cm
- Sidebending to right, between-group difference, unadjusted (12 mos.): −1.6 cm
- Total RAND-36, between-group difference (95% CI), adjusted (ANCOVA) (12 mos.): 2.2 (−2 to 7)
- Total RAND-36, between-group difference (95% CI), unadjusted (12 mos.): 2.1 (−3 to 7)
- Patients using NSAIDs (self-reported) (at one year, placebo 60%): 20%
- Fingers-to-floor, mean (SD) original value (baseline): 23 (19) cm
- Oswestry disability index, mean (SD) original value (baseline): 30 (11) %
- RAND-36 mental component, mean (SD) original value (baseline): 49 (9)
- RAND-36 physical component, mean (SD) original value (baseline): 52 (8)
- Sidebending to left, mean (SD) original value (baseline): 15.0 (5.4) cm
- Sidebending to right, mean (SD) original value (baseline): 14.1 (4.9) cm
- Total RAND-36, mean (SD) original value (baseline): 50 (8)
- Fingers-to-floor, mean (SD) change (baseline to 1 mo.): −5.1 (20) cm
- Intensity of leg pain, mean (SD) change (baseline to 1 mo.): −0.6 (2.4)
- Oswestry disability index, mean (SD) change (baseline to 1 mo.): −5.9 (11) %
- RAND-36 mental component, mean change (baseline to 1 mo.): 1.0
- RAND-36 physical component, mean change (baseline to 1 mo.): 0.1
- Sidebending to left, mean (SD) change (baseline to 1 mo.): 1.1 (3.0) cm
- Sidebending to right, mean (SD) change (baseline to 1 mo.): 1.5 (4.7) cm
- Total RAND-36, mean change (baseline to 1 mo.): 0.6
- Fingers-to-floor, mean (SD) change (baseline to 12 mos.): −6.3 (23) cm
- Intensity of leg pain, mean (SD) change (baseline to 12 mos.): −0.9 (3.4)
- Oswestry disability index, mean (SD) change (baseline to 12 mos.): −5.0 (15) %
- RAND-36 mental component, mean change (baseline to 12 mos.): 1.8
- RAND-36 physical component, mean change (baseline to 12 mos.): 0.3
- Sidebending to left, mean (SD) change (baseline to 12 mos.): 1.2 (5.3) cm
- Sidebending to right, mean (SD) change (baseline to 12 mos.): 1.6 (4.8) cm
- Total RAND-36, mean change (baseline to 12 mos.): 1.0
- Proportion of patients reaching patient acceptable symptom state (PASS) (one month, placebo 20% (p=0.096)): 50%
- Proportion of patients with at least 20% improvement in intensity of LBP (one month, placebo 25% (p=0.105)): 55%
- Pain reduction, VAS change from baseline (patients with Baseline VAS <6): −0.1 cm
- Pain reduction, VAS change from baseline (patients with Baseline VAS ≥6 and <7): −2.3 cm
- Pain reduction, VAS change from baseline (patients with Baseline VAS ≥7): −3.4 cm
- Mean reduction in pain from baseline (patients with baseline pain intensity <6): 0.1
- Mean reduction in pain from baseline (patients with baseline pain intensity ≥7): 3.4
